Test results from patent publication US9000012B2 (priority 2009, dated 2015).

Tests used:
Phytophthora infestans = format: in vivo, Phytophthora infestans on tomato; settings: preventive spray on young tomato plants, 500 ppm of active ingredient, inoculated one day after treatment, evaluated 7 days after inoculation; 0% = untreated control, 100% = no disease
[1] = logP of the compounds of table 1; format: physicochemical

| SMILES | Efficacy (Phytophthora infestans) [%] | logP [1] |
| --- | --- | --- |
| CN(C)C(=O)C(=NOCc1cccc(NC(=O)C2COc3ccccc3O2)n1)c1ccccc1 (centres unmarked) [Example 109] | 98 | 3.42 |
| COc1ccc(CC(=O)Nc2cccc(CON=C(C(=O)N(C)C)c3ccccc3)n2)cc1 [Example 112] | 100 | 3.00 |
| CCCCCOC(=O)Nc1cccc(CON=C(C(=O)N(C)C)c2ccccc2)n1 [Example 99] | 95 | 3.96 |
| CN(C)C(=O)C(=NOCc1csc(NC(=O)C2COc3ccccc3O2)n1)c1ccccc1 (centres unmarked) [Example 129] | 92 | 3.15 |
| CC(Oc1ccccc1)C(=O)Nc1cccc(CON=C(C(=O)N(C)C)c2ccccc2)n1 (centres unmarked) [Example 111] | 92 | 3.50 |
| C#CCC(C)OC(=O)Nc1cccc(CON=C(C(=O)N(C)C)c2ccccc2)n1 (centres unmarked) [Example 101] | 95 | 3.07 |
| CN(C)C(=O)C(=NOCc1cccc(NC(=O)C(F)(F)Oc2ccccc2)n1)c1ccccc1 [Example 110] | 70 | 3.73 |
